Measurements: the supplement of paper PMC13207355

Experiments:
Conditions in all cases: exposure time: 72 h
E13 [1] = patient-derived glioblastoma stem cells of classical subtype; test: surviving fraction (nuclei count normalised to DMSO); higher = more cells surviving (less toxic)
E21 [2] = patient-derived glioblastoma stem cells of mesenchymal subtype; test: as above
E28 [3] = patient-derived glioblastoma stem cells of classical subtype; test: as above
E31 [4] = patient-derived glioblastoma stem cells of proneural subtype; test: as above
E34 [5] = patient-derived glioblastoma stem cells of proneural subtype; test: as above
E57 [6] = patient-derived glioblastoma stem cells of mesenchymal subtype; test: as above
FT3469 [7] = normal neural stem cell line; test: as above
E13 [8] = test: phenotypic distance (Euclidean, principal components) from DMSO controls (arbitrary units); higher = stronger morphological change
E21 [9] = test: as above
E28 [10] = test: as above
E31 [11] = test: as above
E34 [12] = test: as above
E57 [13] = test: as above
FT3469 [14] = test: as above
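Throughout, for phenotypic distance (Euclidean, principal components) from DMSO controls: cell Painting imaging in 384-well plates, CellProfiler features reduced to at least 20 principal components, Euclidean distance versus same-plate DMSO vehicle wells (0.1% v/v), median over six images per well.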
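Throughout, for surviving fraction (nuclei count normalised to DMSO): nuclei counted by high-content imaging of Hoechst-stained cells in laminin-coated 384-well plates, relative to 0.1% DMSO vehicle wells, with staurosporine as cell-death control.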

Cc1cc(CN2CCN(c3c(Br)cnc4nc(-c5ccc(N6CCN(C)CC6)cc5)[nH]c34)CC2)no1
Conditions	phenotypic distance	surviving fraction
E13 [1], 4.1 nM	–	0.995
E13 [1], 12.3 nM	–	0.966
E13 [1], 37 nM	–	0.963
E13 [1], 111.1 nM	–	0.91
E13 [1], 333.3 nM	–	0.676
E13 [1], 1000 nM	–	0.528
E13 [1], 3000 nM	–	0.0986
E13 [8], 4.1 nM	0.33	–
E13 [8], 12.3 nM	0.336	–
E13 [8], 37 nM	0.51	–
E13 [8], 111.1 nM	0.456	–
E13 [8], 333.3 nM	1.86	–
E13 [8], 1000 nM	4.59	–
E13 [8], 3000 nM	13.4	–
E21 [2], 4.1 nM	–	0.936
E21 [2], 12.3 nM	–	0.864
E21 [2], 37 nM	–	0.9
E21 [2], 111.1 nM	–	0.917
E21 [2], 333.3 nM	–	0.6
E21 [2], 1000 nM	–	0.387
E21 [2], 3000 nM	–	0.0348
E21 [9], 4.1 nM	1.03	–
E21 [9], 12.3 nM	0.842	–
E21 [9], 37 nM	0.688	–
E21 [9], 111.1 nM	0.989	–
E21 [9], 333.3 nM	2.77	–
E21 [9], 1000 nM	5.77	–
E21 [9], 3000 nM	7.03	–
E28 [3], 4.1 nM	–	1.15
E28 [3], 12.3 nM	–	0.888
E28 [3], 37 nM	–	1.09
E28 [3], 111.1 nM	–	0.916
E28 [3], 333.3 nM	–	0.806
E28 [3], 1000 nM	–	0.392
E28 [3], 3000 nM	–	0.163
E28 [10], 4.1 nM	1.13	–
E28 [10], 12.3 nM	1.52	–
E28 [10], 37 nM	1.01	–
E28 [10], 111.1 nM	1.29	–
E28 [10], 333.3 nM	1.23	–
E28 [10], 1000 nM	2.97	–
E28 [10], 3000 nM	5.6	–
E31 [4], 4.1 nM	–	1.02
E31 [4], 12.3 nM	–	0.782
E31 [4], 37 nM	–	0.994
E31 [4], 111.1 nM	–	0.867
E31 [4], 333.3 nM	–	0.511
E31 [4], 1000 nM	–	0.334
E31 [4], 3000 nM	–	0.00629
E31 [11], 4.1 nM	0.99	–
E31 [11], 12.3 nM	1.9	–
E31 [11], 37 nM	1.97	–
E31 [11], 111.1 nM	0.784	–
E31 [11], 333.3 nM	1.62	–
E31 [11], 1000 nM	3.36	–
E31 [11], 3000 nM	10.2	–
E34 [5], 4.1 nM	–	0.839
E34 [5], 12.3 nM	–	0.842
E34 [5], 37 nM	–	1.09
E34 [5], 111.1 nM	–	0.872
E34 [5], 333.3 nM	–	0.827
E34 [5], 1000 nM	–	0.618
E34 [5], 3000 nM	–	0.26
E34 [12], 4.1 nM	1.02	–
E34 [12], 12.3 nM	1.13	–
E34 [12], 37 nM	0.858	–
E34 [12], 111.1 nM	0.728	–
E34 [12], 333.3 nM	2.67	–
E34 [12], 1000 nM	2.84	–
E34 [12], 3000 nM	8.59	–
E57 [6], 4.1 nM	–	0.974
E57 [6], 12.3 nM	–	0.888
E57 [6], 37 nM	–	0.906
E57 [6], 111.1 nM	–	0.871
E57 [6], 333.3 nM	–	0.651
E57 [6], 1000 nM	–	0.325
E57 [6], 3000 nM	–	0.0382
E57 [13], 4.1 nM	0.499	–
E57 [13], 12.3 nM	0.684	–
E57 [13], 37 nM	0.82	–
E57 [13], 111.1 nM	1.16	–
E57 [13], 333.3 nM	5.64	–
E57 [13], 1000 nM	8.26	–
E57 [13], 3000 nM	9.56	–
FT3469 [7], 4.1 nM	–	0.662
FT3469 [7], 12.3 nM	–	0.758
FT3469 [7], 37 nM	–	0.843
FT3469 [7], 111.1 nM	–	0.737
FT3469 [7], 333.3 nM	–	0.705
FT3469 [7], 1000 nM	–	0.676
FT3469 [7], 3000 nM	–	0.37
FT3469 [14], 4.1 nM	1.38	–
FT3469 [14], 12.3 nM	0.929	–
FT3469 [14], 37 nM	1.76	–
FT3469 [14], 111.1 nM	1.44	–
FT3469 [14], 333.3 nM	1.88	–
FT3469 [14], 1000 nM	2.37	–
FT3469 [14], 3000 nM	9.55	–
